These results are taken from patent US20110319362A1, “STAT3 LIGANDS AND THERAPEUTIC USES THEREOF” (priority 2008, published 2011).

Like-named read-outs stand apart in the source and are kept apart here.

In one experiment the target is T1, STAT3 protein (Homo sapiens, UniProt P40763).
T1 construct: human STAT3 protein (residues 122-722) fused to His-tag; His-tag
In words: In vitro competitive STAT3 binding assay (fluorescence polarization). The gist of the method:
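FP competition: His-tagged human STAT3 (122-722), 150 nM, with 5 nM 5-Fam-labelled pYLPQTV phosphopeptide tracer (STT2) and titrated inhibitor, read after 2-3 h. IC50 = concentration displacing 50% of tracer, by nonlinear least-squares fit.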
(In general: In fluorescence polarisation assays a small probe gives low polarisation when free and higher when bound to something large.)

Experiment [1] relates to MDA-MB-231 cancer cell line. In words: Cell growth assay (WST-8). The experiment is classed as cell-based. The settings on record: Homo sapiens, MDA-MB-231, 96 h; WST-8, 4 days; read-out: Inhibition of cell growth IC50, MDA-MB-231 cancer cell line. The gist of the method:
(§1)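 Cells (3000–4000/well) grown 4 days with varied compound concentrations, then WST-8 dye added for 1–3 h and absorbance read at 450 nm. Growth inhibition expressed as sample-to-control absorbance ratio.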

The subject of experiment [2] is MDA-MB-468 cancer cell line. In words: Cell growth assay (WST-8). The experiment is classed as cell-based. As to conditions: Homo sapiens, MDA-MB-468, 96 h; WST-8, 4 days; read-out: Inhibition of cell growth IC50, MDA-MB-468 cancer cell line. The essentials:
as §1
Background: Formazan colour is commonly taken as a measure of viable cells.

Where [3] appears, read: FP competitive binding, fluorescently tagged STT2 peptide tracer, read-out: Binding affinities to STAT3 IC50.

T1 sequence (P40763 122-722): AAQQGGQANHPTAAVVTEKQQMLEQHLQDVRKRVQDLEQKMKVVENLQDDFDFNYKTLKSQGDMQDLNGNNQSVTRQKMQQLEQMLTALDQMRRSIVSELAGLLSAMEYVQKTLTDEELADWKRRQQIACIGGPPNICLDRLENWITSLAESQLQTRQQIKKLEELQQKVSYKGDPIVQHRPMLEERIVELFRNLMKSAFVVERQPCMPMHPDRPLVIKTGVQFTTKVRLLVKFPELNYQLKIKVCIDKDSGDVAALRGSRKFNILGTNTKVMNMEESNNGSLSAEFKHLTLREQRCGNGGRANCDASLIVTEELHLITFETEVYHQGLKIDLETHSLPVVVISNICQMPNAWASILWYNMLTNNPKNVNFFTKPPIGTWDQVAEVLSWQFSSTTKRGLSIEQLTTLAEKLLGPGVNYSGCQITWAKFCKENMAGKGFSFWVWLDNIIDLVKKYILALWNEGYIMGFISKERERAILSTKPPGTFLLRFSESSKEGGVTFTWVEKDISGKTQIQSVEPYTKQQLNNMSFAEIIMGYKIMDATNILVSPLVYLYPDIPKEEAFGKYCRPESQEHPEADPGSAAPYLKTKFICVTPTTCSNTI

In the case of `CCCCCCCCCCCCCCCCN1CCN(CCC(=O)N[C@@H](Cc2ccc(OP(=O)(O)O)cc2)C(=O)N[C@H]2CCCCC3CC[C@@H](C(=O)NCCCCNC)N3C2=O)CC1` (stereo partly drawn), the IC50 on STAT3 protein (setting [3]) was less than 10 µM; in experiment [1], less than 50 µM; in experiment [2], less than 50 µM.

Consider `CP(=O)(O)Cc1ccc(CCC(=O)N[C@H]2CCCCC3CC[C@@H](C(=O)N[C@@H](CCC(N)=O)C(=O)NCc4ccccc4)N3C2=O)cc1` (stereo partly drawn), for which the IC50 (at STAT3 protein (setting [3]); in experiment [1]; in experiment [2]) was more than 100 µM in each case.

For the compound `O=C(O)CCc1ccc(CCC(=O)N[C@H]2CCCC[C@H]3CC[C@@H](C(=O)NCC[C@H](O)CO)N3C2=O)cc1` [Example 4], the IC50 is more than 100 µM at STAT3 protein (setting [3]), more than 30 µM in experiment [1] and more than 100 µM in experiment [2].

`CCCCCCCCCCCCCCCCN1CCN(CCC(=O)N[C@@H](Cc2ccc(OP(=O)(O)O)cc2)C(=O)N[C@H]2CCCCC3CC[C@@H](C(=O)N[C@@H](CCC(N)=O)C(=O)NCc4ccccc4)N3C2=O)CC1` (stereo partly drawn): the IC50 at STAT3 protein (setting [3]) is less than 1 µM; in experiment [1], less than 10 µM; in experiment [2], less than 10 µM.

On to `NCCC[C@H](NC(=O)[C@@H]1CC[C@@H]2CCCC[C@H](NC(=O)[C@H](Cc3ccc(OP(=O)(O)O)cc3)NC(=O)OCc3ccccc3)C(=O)N21)C(=O)NCc1ccccc1` [Example 20], for which the IC50 at STAT3 protein was less than 10 µM; in experiment [1], more than 50 µM; in experiment [2], more than 100 µM.

On to `CCCNC(=O)[C@@H]1CC[C@@H]2CCCC[C@H](NC(=O)[C@H](Cc3ccc(OP(=O)(O)O)cc3)NC(=O)OCc3ccccc3)C(=O)N21` [Example 15], for which the figures for the IC50 (at STAT3 protein (setting [3]); in experiment [1]; in experiment [2]) were less than 30 µM, more than 30 µM and more than 100 µM, respectively.

`O=C(N[C@@H](Cc1ccc(OP(=O)(O)O)cc1)C(=O)N[C@H]1CCCC[C@H]2CC[C@@H](Cn3cc(-c4ccccc4)nn3)N2C1=O)OCc1ccccc1` [Example 9]: the IC50 was more than 20 µM on STAT3 protein (setting [3]), more than 5 µM in experiment [1] and more than 5 µM in experiment [2].

As for `O=C(N[C@@H](Cc1ccc(OP(=O)(O)O)cc1)C(=O)N[C@H]1CCCC[C@H]2CC[C@@H](C(=O)N[C@@H](Cc3c[nH]cn3)C(=O)NCc3ccccc3)N2C1=O)OCc1ccccc1` [Example 22], the IC50 is less than 10 µM on STAT3 protein, more than 50 µM in experiment [1] and more than 100 µM in experiment [2].

For the compound `CN(C)[C@@H](Cc1ccc(OP(=O)(O)O)cc1)C(=O)N[C@H]1CCCCC2CC[C@@H](C(=O)N[C@@H](Cc3c[nH]cn3)C(=O)NCc3ccccc3)N2C1=O` (stereo in doubt) [Example 39], the values for the IC50 (on STAT3 protein (setting [3]); in experiment [1]; in experiment [2]) were less than 10 µM, more than 100 µM and more than 100 µM, respectively.

Consider `N=C(N)NCCC[C@H](NC(=O)[C@@H]1CC[C@@H]2CCCC[C@H](NC(=O)[C@@H](N)Cc3ccc(OP(=O)(O)O)cc3)C(=O)N21)C(=O)NCc1ccccc1` [Example 12], for which the results for the IC50 (on STAT3 protein (setting [3]); in experiment [1]; in experiment [2]) were more than 5 µM, less than 50 µM and more than 100 µM, respectively.

`CN[C@@H](Cc1ccc(OCP(=O)(O)O)cc1)C(=O)NC1CCCC[C@H]2CC[C@@H](C(=O)N[C@@H](Cc3c[nH]cn3)C(=O)NCc3ccccc3)N2C1=O` (stereo in doubt) [Example 35]: the IC50 at STAT3 protein (setting [3]) was less than 100 µM; in experiment [1] it was more than 100 µM; in experiment [2], more than 100 µM.

Regarding `NC(=O)CC[C@H](NC(=O)[C@@H]1CCC2CCNC[C@H](NC(=O)[C@@H](N)Cc3ccc(OP(=O)(O)O)cc3)C(=O)N21)C(=O)NCc1ccccc1` (stereo partly drawn), the IC50 is less than 100 µM at STAT3 protein, more than 100 µM in experiment [1] and more than 100 µM in experiment [2].

For `C[C@H](NC(=O)[C@@H]1CC[C@@H]2CCCC[C@H](NC(=O)[C@@H](N)Cc3ccc(OC(C(=O)O)C(=O)O)cc3)C(=O)N21)C(=O)NCc1ccccc1` [Example 10], the IC50 on STAT3 protein (setting [3]) is more than 100 µM; in experiment [1] it was more than 50 µM; in experiment [2] it was more than 100 µM.

On to `CCCCCCCCCCCCNC(=O)[C@H](CCC(N)=O)NC(=O)[C@@H]1CCC2CCCC[C@H](NC(=O)[C@H](Cc3ccc(OP(=O)(O)O)cc3)NC)C(=O)N21` (stereo partly drawn), for which the IC50 on STAT3 protein (setting [3]) was less than 5 µM; in experiment [1], less than 30 µM; in experiment [2], less than 20 µM.

On to `NC(=O)CC[C@H](NC(=O)[C@@H]1CCC2CCCC[C@H](NC(=O)[C@H](Cc3ccc(OP(=O)(O)O)cc3)NC(=O)OCc3ccccc3)C(=O)N21)C(=O)NCc1ccccc1` (stereo in doubt) [Example 41], for which the IC50 at STAT3 protein is less than 1 µM; in experiment [1], more than 50 µM; in experiment [2], more than 100 µM.

As for `CNCCCNC(=O)[C@@H]1CC[C@@H]2CCCC[C@H](NC(=O)[C@H](Cc3ccc(OP(=O)(O)O)cc3)NC(=O)OCc3ccccc3)C(=O)N21` [Example 19], the IC50 on STAT3 protein (setting [3]) is less than 100 µM; in experiment [1] it was more than 100 µM; in experiment [2] it was more than 100 µM.

`O=C(CC[C@H](NC(=O)[C@@H]1CCC2CCCC[C@H](NC(=O)[C@H](Cc3ccc(OP(=O)(O)O)cc3)NC(=O)OCc3ccccc3)C(=O)N21)C(=O)NCc1ccccc1)NC(c1ccccc1)(c1ccccc1)c1ccccc1` (stereo partly drawn): the IC50 at STAT3 protein is less than 20 µM; in experiment [1], less than 50 µM; in experiment [2], less than 50 µM.

`C[C@H](NC(=O)[C@@H]1CC[C@@H]2CCCC[C@H](NC(=O)[C@H](Cc3ccc(OP(=O)(O)O)cc3)NC(=O)OCc3ccccc3)C(=O)N21)C(=O)NCc1ccccc1` [Example 8]: the results for the IC50 (at STAT3 protein; in experiment [1]; in experiment [2]) were more than 20 µM, more than 10 µM and more than 10 µM, respectively.

As to `CP(=O)(O)CCCCCC(=O)N[C@H]1CCCCC2CC[C@@H](C(=O)N[C@@H](CCC(N)=O)C(=O)NCc3ccccc3)N2C1=O` (stereo partly drawn), the IC50 (at STAT3 protein (setting [3]); in experiment [1]; in experiment [2]) was more than 100 µM throughout.

Consider `NCCOCCOCCOCCOCCC(=O)N[C@@H](Cc1ccc(OP(=O)(O)O)cc1)C(=O)N[C@H]1CCCCC2CC[C@@H](C(=O)N[C@@H](CCC(N)=O)C(=O)NCc3ccccc3)N2C1=O` (stereo partly drawn), for which the IC50 on STAT3 protein (setting [3]) is less than 5 µM; in experiment [1], more than 100 µM; in experiment [2], more than 100 µM.

Turning to `NC(=O)CC[C@H](NC(=O)[C@@H]1CCC2CCCC[C@H](NC(=O)/C=C/c3ccc(OP(=O)(O)O)cc3)C(=O)N21)C(=O)NCc1ccccc1` (stereo partly drawn) [Example 56], the IC50 on STAT3 protein is less than 1 µM; in experiment [1], more than 100 µM; in experiment [2], more than 100 µM.

`CCCCCCCCCCCCCCCCN1CCN(CCC(=O)N[C@@H](Cc2ccc(OP(=O)(O)O)cc2)C(=O)N[C@H]2CCCCC3CC[C@@H](C(=O)NCCc4cn[nH]c4)N3C2=O)CC1` (stereo partly drawn): the values for the IC50 (on STAT3 protein (setting [3]); in experiment [1]; in experiment [2]) were less than 5 µM, less than 20 µM and less than 20 µM, respectively.

For the compound `N=C(N)NCCC[C@H](NC(=O)[C@@H]1CC[C@@H]2CCCC[C@H](NC(=O)[C@H](Cc3ccc(OP(=O)(O)O)cc3)NC(=O)OCc3ccccc3)C(=O)N21)C(=O)NCc1ccccc1` [Example 11], the IC50 at STAT3 protein is more than 5 µM; in experiment [1], more than 50 µM; in experiment [2] it was more than 100 µM.

As to `CCCCCCCCCCCCCCCC(=O)N[C@@H](Cc1ccc(OP(=O)(O)O)cc1)C(=O)NC1CCCC[C@H]2CC[C@@H](C(=O)N[C@@H](Cc3c[nH]cn3)C(=O)NCc3ccccc3)N2C1=O` (stereo partly drawn) [Example 38], the figures for the IC50 (at STAT3 protein; in experiment [1]; in experiment [2]) were less than 100 µM, less than 50 µM and less than 60 µM, respectively.

With `CN(C)[C@@H](Cc1ccc(OCP(=O)(O)O)cc1)C(=O)NC1CCCC[C@H]2CC[C@@H](C(=O)N[C@@H](Cc3c[nH]cn3)C(=O)NCCc3ccccc3)N2C1=O` (stereo in doubt) [Example 34], the IC50 at STAT3 protein (setting [3]) is less than 30 µM; in experiment [1] it was more than 100 µM; in experiment [2] it was more than 100 µM.

As to `CN[C@@H](Cc1ccc(OP(=O)(O)O)cc1)C(=O)N[C@H]1CCCCC2CC[C@@H](C(=O)N[C@@H](Cc3c[nH]cn3)C(=O)NCc3ccccc3)N2C1=O` (stereo partly drawn), the IC50 on STAT3 protein (setting [3]) was less than 30 µM; in experiment [1], more than 50 µM; in experiment [2] it was more than 100 µM.

The IC50 is the midpoint of a concentration-inhibition curve.
